Experimental data as given in BigSolDB 2.1.

O=C(O)C(O)c1ccccc1 (racemic)
Details	solubility (mole fraction)
in ethanol, 294.65 K	0.247
in ethanol, 299.45 K	0.261
in ethanol, 303.85 K	0.274
in ethanol, 308.25 K	0.292
in ethanol, 314.65 K	0.325
in ethanol, 319.15 K	0.349
in ethanol, 324.85 K	0.376
in ethanol, 328.55 K	0.394
in ethanol, 333.45 K	0.418
in ethanol, 338.15 K	0.439
in isopropanol, 293.15 K	0.213
in isopropanol, 298.15 K	0.236
in isopropanol, 305.15 K	0.262
in isopropanol, 308.15 K	0.272
in isopropanol, 313.15 K	0.294
in isopropanol, 318.15 K	0.315
in isopropanol, 323.15 K	0.338
in isopropanol, 328.15 K	0.362
in isopropanol, 333.15 K	0.383
in isopropanol, 338.15 K	0.41
in methanol, 283.15 K	0.236
in methanol, 288.15 K	0.243
in methanol, 293.15 K	0.256
in methanol, 298.15 K	0.265
in methanol, 304.65 K	0.281
in methanol, 308.15 K	0.293
in methanol, 313.15 K	0.308
in methanol, 318.15 K	0.323
in n-propanol, 293.15 K	0.196
in n-propanol, 298.15 K	0.213
in n-propanol, 305.35 K	0.237
in n-propanol, 308.15 K	0.252
in n-propanol, 313.15 K	0.275
in n-propanol, 318.15 K	0.3
in n-propanol, 323.15 K	0.325
in n-propanol, 328.15 K	0.347
in n-propanol, 333.15 K	0.368
in n-propanol, 338.15 K	0.39
in water, 293.15 K	0.018
in water, 298.15 K	0.0233
in water, 303.15 K	0.037
in water, 308.15 K	0.0656
in water, 313.15 K	0.11
in water, 318.15 K	0.16
in water, 323.15 K	0.206
in water, 328.15 K	0.237
in water, 333.15 K	0.278
in water, 338.15 K	0.317
